Literature values as cited in PubChem BioAssay AID1259409 (Chemical Carcinogenesis Research Information System (CCRIS), 2018).

Tested on: rodent chemically induced tumor inhibition, incidence and multiplicity
Experiment: CCRIS tumor inhibitor studies
Settings: Carcinogen: DIETHYLNITROSAMINE, 55-18-5, N-METHYLNITROSOUREA, 684-93-5, 1,2-DIMETHYLHYDRAZINE, 540-73-8, Carcinogen: DIETHYLNITROSAMINE, 55-18-5, N-METHYLNITROSOUREA, 684-93-5, 1,2-DIMETHYLHYDRAZINE, 540-73-8, Dose [Inhibitor]: 0, Route [Inhibitor]: ORAL, Species: RAT, Strain/Sex: F344/MALE, Dose [Carcinogen]: 100 MG/KG DEN ONCE, 20 MG/KG MNU 4 TIMES, 40 MG/KG DMH 4 TIMES, 0.05% BBN IN DRINKING WATER FOR 2 WK, 0.1% DHPN IN D, Dose [Carcinogen]: 100 MG/KG DEN ONCE, 20 MG/KG MNU 4 TIMES, 40 MG/KG DMH 4 TIMES, 0.05% BBN IN DRINKING WATER FOR 2 WK, 0.1% DHPN IN D, Promoter: NONE USED

**Q.** For `COc1cc(C=O)ccc1O`, which “tumour outcome (control, treated, inhibition, significance)” value (N-BUTYL-N-(4-HYDROXYB, N-BUTYL-N-(4-HYDROXYB, 1% IN DIET FOR 4 WK BEGINNING 1 DAY PRIOR TO CARCINOGEN TREATMENT (STUDY DURATION: 36 WK), Target Tissue: Type of Lesion: KIDNEY: ADENOMA) is on record?
**A.** Its value is 4/14 (29%), 4/15 (27%), 7%, not significant.

**Q.** And the “tumour outcome (control, treated, inhibition, significance)” value (N-BUTYL-N-(4-HYDROXYB, N-BUTYL-N-(4-HYDROXYB, 1% IN DIET FOR 4 WK BEGINNING 1 DAY PRIOR TO CARCINOGEN TREATMENT (STUDY DURATION: 36 WK), Target Tissue: Type of Lesion: KIDNEY: NEPHROBLASTOMA)?
**A.** The value was 7/14 (50%), 8/15 (53%), -6%, not significant.

**Q.** And the “tumour outcome (control, treated, inhibition, significance)” value (N-BUTYL-N-(4-HYDROXYB, N-BUTYL-N-(4-HYDROXYB, 1% IN DIET FOR 4 WK BEGINNING 1 DAY PRIOR TO CARCINOGEN TREATMENT (STUDY DURATION: 36 WK), Target Tissue: Type of Lesion: LARGE INTESTINE: ADENOMA)?
**A.** Its value is 7/14 (50%), 6/15 (40%), 20%, not significant.

**Q.** What about the “tumour outcome (control, treated, inhibition, significance)” value (N-BUTYL-N-(4-HYDROXYB, N-BUTYL-N-(4-HYDROXYB, 1% IN DIET FOR 4 WK BEGINNING 1 DAY PRIOR TO CARCINOGEN TREATMENT (STUDY DURATION: 36 WK), Target Tissue: Type of Lesion: LARGE INTESTINE: CARCINOMA) of the same compound?
**A.** Its value is 3/14 (21%), 11/15 (73%), -248%, p<0.01.

**Q.** And the “tumour outcome (control, treated, inhibition, significance)” value (N-BUTYL-N-(4-HYDROXYB, N-BUTYL-N-(4-HYDROXYB, 1% IN DIET FOR 4 WK BEGINNING 1 DAY PRIOR TO CARCINOGEN TREATMENT (STUDY DURATION: 36 WK), Target Tissue: Type of Lesion: LUNG: ADENOMA)?
**A.** Its value is 6/14 (43%), 2/15 (13%), 70%, not significant.

**Q.** And the “tumour outcome (control, treated, inhibition, significance)” value (N-BUTYL-N-(4-HYDROXYB, N-BUTYL-N-(4-HYDROXYB, 1% IN DIET FOR 4 WK BEGINNING 1 DAY PRIOR TO CARCINOGEN TREATMENT (STUDY DURATION: 36 WK), Target Tissue: Type of Lesion: SMALL INTESTINE: ADENOMA)?
**A.** Its value is 6/14 (43%), 3/15 (20%), 53%, not significant.

**Q.** What about the “tumour outcome (control, treated, inhibition, significance)” value (N-BUTYL-N-(4-HYDROXYB, N-BUTYL-N-(4-HYDROXYB, 1% IN DIET FOR 4 WK BEGINNING 1 DAY PRIOR TO CARCINOGEN TREATMENT (STUDY DURATION: 36 WK), Target Tissue: Type of Lesion: SMALL INTESTINE: CARCINOMA) of the same compound?
**A.** The value was 5/14 (36%), 2/15 (13%), 64%, not significant.

**Q.** What about the “tumour outcome (control, treated, inhibition, significance)” value (N-BUTYL-N-(4-HYDROXYB, N-BUTYL-N-(4-HYDROXYB, 1% IN DIET FOR 32 WK BEGINNING POST CARCINOGEN TREATMENT (STUDY DURATION: 36 WK), Target Tissue: Type of Lesion: KIDNEY: ADENOMA) of the same compound?
**A.** Its value is 4/14 (29%), 9/15 (60%), -107%, not significant.

**Q.** And the “tumour outcome (control, treated, inhibition, significance)” value (N-BUTYL-N-(4-HYDROXYB, N-BUTYL-N-(4-HYDROXYB, 1% IN DIET FOR 32 WK BEGINNING POST CARCINOGEN TREATMENT (STUDY DURATION: 36 WK), Target Tissue: Type of Lesion: KIDNEY: NEPHROBLASTOMA)?
**A.** Its value is 7/14 (50%), 11/15 (73%), -46%, not significant.

**Q.** And the “tumour outcome (control, treated, inhibition, significance)” value (N-BUTYL-N-(4-HYDROXYB, N-BUTYL-N-(4-HYDROXYB, 1% IN DIET FOR 32 WK BEGINNING POST CARCINOGEN TREATMENT (STUDY DURATION: 36 WK), Target Tissue: Type of Lesion: LARGE INTESTINE: CARCINOMA)?
**A.** The value was 3/14 (21%), 5/15 (33%), -57%, not significant.

**Q.** And the “tumour outcome (control, treated, inhibition, significance)” value (N-BUTYL-N-(4-HYDROXYB, N-BUTYL-N-(4-HYDROXYB, 1% IN DIET FOR 32 WK BEGINNING POST CARCINOGEN TREATMENT (STUDY DURATION: 36 WK), Target Tissue: Type of Lesion: SMALL INTESTINE: ADENOMA)?
**A.** Its value is 6/14 (43%), 4/15 (27%), 37%, not significant.

**Q.** What about the “tumour outcome (control, treated, inhibition, significance)” value (N-BUTYL-N-(4-HYDROXYB, N-BUTYL-N-(4-HYDROXYB, 1% IN DIET FOR 32 WK BEGINNING POST CARCINOGEN TREATMENT (STUDY DURATION: 36 WK), Target Tissue: Type of Lesion: SMALL INTESTINE: CARCINOMA) of the same compound?
**A.** The value was 5/14 (36%), 1/15 (7%), 81%, not significant.

**Q.** And the “tumour outcome (control, treated, inhibition, significance)” value (N-BUTYL-N-(4-HYDROXYBU, N-BUTYL-N-(4-HYDROXYBU, 1% IN DIET FOR 32 WK BEGINNING POST CARCINOGEN TREATMENT (STUDY DURATION: 36 WK), Target Tissue: Type of Lesion: LARGE INTESTINE: ADENOMA)?
**A.** The value was 7/14 (50%), 8/15 (53%), -6%, not significant.

**Q.** And the “tumour outcome (control, treated, inhibition, significance)” value (N-BUTYL-N-(4-HYDROXYBU, N-BUTYL-N-(4-HYDROXYBU, 1% IN DIET FOR 32 WK BEGINNING POST CARCINOGEN TREATMENT (STUDY DURATION: 36 WK), Target Tissue: Type of Lesion: LUNG: ADENOMA)?
**A.** Its value is 6/14 (43%), 3/15 (20%), 53%, p<0.05.
